Key:
[1] = target: T1, Type-1 angiotensin II receptor (Oryctolagus cuniculus, UniProt P34976); assay: In vitro inhibitory activity against Angiotensin II receptor, type 1 to displace 125I-Sar,Ile8-AII in rabbit aorta; assay type: tissue-based
T1 sequence (P34976 whole entry): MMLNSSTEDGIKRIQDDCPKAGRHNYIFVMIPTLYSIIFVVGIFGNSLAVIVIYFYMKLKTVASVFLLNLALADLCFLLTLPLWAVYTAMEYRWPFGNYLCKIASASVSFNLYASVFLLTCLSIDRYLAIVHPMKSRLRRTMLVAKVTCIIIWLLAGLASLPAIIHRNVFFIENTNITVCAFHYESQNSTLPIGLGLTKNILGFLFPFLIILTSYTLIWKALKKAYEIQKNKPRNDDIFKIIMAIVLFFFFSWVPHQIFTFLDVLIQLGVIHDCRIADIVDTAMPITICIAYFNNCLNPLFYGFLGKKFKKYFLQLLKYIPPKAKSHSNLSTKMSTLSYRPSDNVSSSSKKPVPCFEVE

[2] = target: T2, Type-2 angiotensin II receptor (Rattus norvegicus, UniProt P35351); assay: In vitro inhibitory activity against angiotensin II (AT2) receptor to displace 125I-Sar,Ile8-AII in rat midbrain
T2 sequence (P35351 whole entry): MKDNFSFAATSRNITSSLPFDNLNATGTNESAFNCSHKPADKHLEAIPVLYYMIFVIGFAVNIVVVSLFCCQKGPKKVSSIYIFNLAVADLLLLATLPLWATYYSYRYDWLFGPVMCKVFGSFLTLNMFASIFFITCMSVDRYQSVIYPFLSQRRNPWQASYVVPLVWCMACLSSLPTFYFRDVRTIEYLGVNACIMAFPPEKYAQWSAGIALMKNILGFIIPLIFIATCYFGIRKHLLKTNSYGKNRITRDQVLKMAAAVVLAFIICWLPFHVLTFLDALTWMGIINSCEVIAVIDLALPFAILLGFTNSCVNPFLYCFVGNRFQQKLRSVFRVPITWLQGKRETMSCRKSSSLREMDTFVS

SMILES | IC50 [1] | IC50 [2]
CCCCc1ncc(C(=O)O)n1Cc1ccc(-c2ccccc2NS(=O)(=O)NC(=O)C2CC2)cc1 | 7.4 nM | > 10000 nM
CCCc1nc(CC)c(C=O)n1Cc1ccc(-c2ccccc2-c2nnn[nH]2)cc1 | 8 nM | > 30000 nM
CCCCc1ncc(C(=O)OC)n1Cc1ccc(-c2ccccc2NS(=O)(=O)NC(=O)c2ccccc2)cc1 | 20 nM | 1800 nM
CCCCc1ncc(C(=O)OC)n1Cc1ccc(-c2ccccc2-c2nn[nH]n2)cc1 | 15 nM | > 50000 nM
CCCc1nc(CC)c(C(=O)O)n1Cc1ccc(-c2ccccc2-c2nnn[nH]2)cc1 | 6 nM | > 1000 nM
CCCCCCCC(=O)NS(=O)(=O)Nc1ccccc1-c1ccc(Cn2c(C(=O)O)cnc2CCCC)cc1 | 0.2 nM | 2300 nM
CCCCc1nc(Cl)c(C(=O)OC)n1Cc1ccc(-c2ccccc2-c2nn[nH]n2)cc1 | 13 nM | > 50000 nM
CCCc1nc(CC)c(C(=O)OC)n1Cc1ccc(-c2ccccc2S(=O)(=O)NC(=O)c2ccccc2)cc1 | 0.5 nM | 1000 nM
CCCc1nc(CC)c(C(=O)OC)n1Cc1ccc(-c2ccccc2S(=O)(=O)NC(=O)C2CC2)cc1 | 2.6 nM | 2100 nM
CCCCc1nc(Cl)c(C(=O)OC)n1Cc1ccc(-c2ccccc2S(=O)(=O)NC(=O)c2ccccc2)cc1 | 8.8 nM | 5300 nM
CCCCCCCC(=O)NS(=O)(=O)Nc1ccccc1-c1ccc(Cn2c(C(=O)OC)cnc2CCCC)cc1 | 1.9 nM | 500 nM
CCCc1nc(CC)c(C(=O)O)n1Cc1ccc(-c2ccccc2S(=O)(=O)NC(=O)C2CC2)cc1 | 4.3 nM | > 10000 nM
CCCCc1ncc(C(=O)OC)n1Cc1ccc(-c2ccccc2S(=O)(=O)NC(=O)c2ccccc2)cc1 | 21 nM | > 1000 nM
CCCc1nc(CC)c(C=O)n1Cc1ccc(-c2ccccc2S(=O)(=O)NC(=O)C2CC2)cc1 | 12 nM | 2000 nM
CCCCc1ncc(C(=O)O)n1Cc1ccc(-c2ccccc2NS(=O)(=O)NC(=O)c2ccccc2)cc1 | 6 nM | > 10000 nM
CCCCc1ncc(C(=O)O)n1Cc1ccc(-c2ccccc2S(=O)(=O)NC(=O)c2ccccc2)cc1 | 6.2 nM | 4500 nM
CCCCc1nc(Cl)c(C(=O)O)n1Cc1ccc(-c2ccccc2S(=O)(=O)NC(=O)c2ccccc2)cc1 | 2 nM | 9500 nM
CCCCc1ncc(C(=O)OC)n1Cc1ccc(-c2ccccc2NS(=O)(=O)NC(=O)C2CC2)cc1 | 32 nM | 10000 nM
CCCc1nc(CC)c(C(=O)O)n1Cc1ccc(-c2ccccc2S(=O)(=O)NC(=O)c2ccccc2)cc1 | 1.7 nM | 7000 nM
CCCCc1ncc(C(=O)OC)n1Cc1ccc(-c2ccccc2S(=O)(=O)NC(=O)C2CC2)cc1 | 39 nM | 8000 nM
CCCc1nc(CC)c(C=O)n1Cc1ccc(-c2ccccc2S(=O)(=O)NC(=O)c2ccccc2)cc1 | 2.4 nM | –
CCCCc1ncc(C(=O)O)n1Cc1ccc(-c2ccccc2S(=O)(=O)NC(=O)C2CC2)cc1 | 5.8 nM | 5800 nM
CCCCc1ncc(C(=O)O)n1Cc1ccc(-c2ccccc2-c2nn[nH]n2)cc1 | 2.9 nM | > 50000 nM

— ChEMBL document CHEMBL1127876, “Potent imidazole angiotensinII antagonists: acyl sulfonamides and acyl sulfamides as tetrazole replacements” (Bioorg Med Chem Lett, 1994)
